Data: patent publication US20040229816A1, “Anti-angiogenic and anti-tumoral properties of beta and gamma secretase inhibitors” (priority 2003, published 2004)
“Also recorded” adds a separate entry of the source. Where two headings read alike, the source gives them in different places. Peptide text beside a SMILES is read from it. * marks the point of attachment. Cbz = O=C(OCc1ccccc1)*

Tests used:
[1] = system: human brain endothelial cells; assay: proliferation of human brain endothelial cells (Quick cell proliferation assay kit); assay type: cell-based; conditions: various doses, 24 hours
Description: Primary cultures of human brain endothelial cells were plated at a density of 10^4 cells/[…] of EBM 4% in 96 wells culture plates and treated with various doses of γ-secretase and β-secretase inhibitors as indicated in the figure legends. Following 24 hours in culture, the EBM covering the cells was removed and assayed for Lacticodehydrogenase (LDH) activity using the cytotoxicity detection kit (Roche Diagnostic Corporation, Ind.). Cells were covered with […] of EBM 4% and cellular proliferation measured using the Quick cell proliferation assay kit (Biovision Research Products, Calif.).

[2] = system: Human middle cerebral artery endothelial cells; assay: capillary morphogenesis assay; assay type: cell-based
Description: Two hundred μl of Matrigel were placed into each well of a 24-well culture plate at 4° C. and allowed to polymerize by incubation at 37° C. Human middle cerebral artery endothelial cells (5×104) were seeded on the Matrigel in 1 ml of EBM containing 4% fetal calf serum. The cells were incubated at 37° C. for 20 hours in a humidified 5% CO2 atmosphere in the presence or absence of various doses of γ-secretase and β-secretase inhibitors as indicated in the figure legends. The experiments were performed in quadruplicate for each treatment condition. For each culture, 2 randomly chosen fields were photographed using a 4×objective. An experimenter unaware of the different treatments measured the total length of tube structures in each photograph using the Image Pro Plus software (Media Cybernetic, Inc., Md.). Capillary network lengths for the different treatment conditions were expressed as the percentage of capillary network lengths obtained in the control condition.

APP [3] = assay: α-sAPP secretion by human brain endothelial cells (immunoprecipitation, immunoblotting); assay type: cell-based; conditions: 5 μM, 24 hours
Description: (§1) Confluent human brain endothelial cells (grown on 75 cm2 flasks with EBM 4% FBS medium) were treated for 24 hours with 5 μM of Z-VVL-CHO, 5 μM of L-685,458, 5 μM of OM99-2, 5 AM of DAPT or went untreated (control). Experiments were done in quadriplicate for each treatment condition. 6E10 (Signet), a mAb that recognizes residues 1-17 of human Aβ (Van Nostrand et al., Nature, 341, 546-549, 1989) was used to immunoprecipitate soluble APP generated following cleavage by α-secretase from cell culture medium. Immunoprecipitated material was resolved on a 4-20% gradient SDS-PAGE, transferred to PVDF membranes and immunodetected with mAb 22C11 (Roche Diagnostics) that recognizes the amino acids 66-81 of the N-terminal portion of APP (Hibich, C., J. Biol. Chem., 268, 26571-26577, 1993). Human brain endothelial cells were lysed on ice using MPERTM reagent (Pierce) supplemented with 1 mM PMSF and 1 mM of sodium-orthovanadate. Samples were sonicated and centrifuged at 10,000 g for 30 min at 4° C. The protein content of the lysates was determined using the BCA Protein assay kit (Pierce). Total lysates ([…] of protein/sample) were separated on a 4-20% gradient SDS-PAGE and transferred to PVDF membranes and immunoprobed with mAb 22C11 in order to detect full length APP and also immunoprobed with an Anti-APP-CT20 (Calbiochem) antibody which recognizes the amino acid residues 751-770 of the carboxyl terminal region of APP (Pinnix et al. 2001; J. Biol. Chem., 276, 481).

β-secretase = molecular target: T1, β-secretase (Cricetulus griseus, UniProt G3IAK4); conditions: Chinese hamster ovary cells, wild-type APP751, cited from earlier work
T1 construct: endogenous in cells; host or cells: Chinese hamster ovary cells stably transfected with wild-type APP751

APP [4] = assay: carboxyl-terminal APP fragments in human brain endothelial cell lysates (immunoblotting); assay type: cell-based; conditions: 5 μM, 24 hours
Description: as §1

T1 sequence (G3IAK4 22-501): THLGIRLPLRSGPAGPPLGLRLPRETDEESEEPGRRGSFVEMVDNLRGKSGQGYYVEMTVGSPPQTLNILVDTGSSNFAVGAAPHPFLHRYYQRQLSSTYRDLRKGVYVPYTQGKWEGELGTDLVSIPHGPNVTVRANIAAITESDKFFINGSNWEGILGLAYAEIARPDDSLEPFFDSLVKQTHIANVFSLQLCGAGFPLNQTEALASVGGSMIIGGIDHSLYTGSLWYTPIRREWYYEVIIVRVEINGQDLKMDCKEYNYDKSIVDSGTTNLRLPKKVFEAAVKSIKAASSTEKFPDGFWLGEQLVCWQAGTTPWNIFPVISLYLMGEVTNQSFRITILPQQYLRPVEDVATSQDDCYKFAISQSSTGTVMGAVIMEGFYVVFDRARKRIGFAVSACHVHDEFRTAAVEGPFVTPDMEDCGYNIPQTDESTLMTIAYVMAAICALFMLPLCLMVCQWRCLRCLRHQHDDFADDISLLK

Row | SMILES | proliferation of human brain endothelial cells, dose dependence [1] | formation of capillary structures, overall [2] | secretion of α-sAPP (APP [3]) | secretion of α-sAPP (APP [3]; listed as Z-VVL-CHO) | IC50 (β-secretase; read-out: formation of Aβ42, IC50) [µM] | IC50 (β-secretase; read-out: formation of Aβtotal, IC50) [µM] | accumulation of carboxyl-terminal APP fragments (APP CTF) (APP [4])
1 | CC(C)C[C@@H](C=O)NC(=O)[C@H](CC(C)C)NC(=O)[C@@H](NC(=O)OCc1ccccc1)C(C)C [Z-VLL-CHO, N-benzyloxycarbony-val-leu-leucinal] (Cbz-Val-Leu-Leu-aldehyde) | dose dependently inhibited | profoundly anti-angiogenic | stimulated | significantly inceases | 2.5 | 0.7 | 
2 | C[C@H](NC(=O)Cc1cc(F)cc(F)c1)C(=O)N[C@H](C(=O)OC(C)(C)C)c1ccccc1 [DAPT, N-[N-(3,5-difluorophenacetyl-L-alanyl)]-S-phenylglycine t-butyl ester] | dose dependently inhibited |  |  |  |  |  | stimulates; also recorded: promoted the accumulation
